Assay results reported in patent publication US20110118118A1, “HERBICIDALLY ACTIVE PHENYL-SUBSTITUTED PYRIDAZINONES” (BAYER CROPSCIENCE AG, priority 2009, published 2011).

Legend:
Test in all cases: Post-emergence herbicidal action against harmful plants
Assay type in all cases: in vivo
Conditions in all cases: application rate 320 g/ha, rated visually after about 3 weeks vs untreated controls
Abutilon theophrasti = tested on: Abutilon theophrasti
Protocol: (§1) 2. Post-Emergence Herbicidal Action Against Harmful Plants Seeds of monocotyledonous and dicotyledonous weed and crop plants are placed in sandy loam in wood-fiber pots, covered with soil and cultivated in a greenhouse under good growth conditions. 2 to 3 weeks after sowing, the test plants are treated at the one-leaf stage. The compounds according to the invention, formulated in the form of wettable powders (WP) or as emulsion concentrates (EC), are then sprayed as aqueous suspension or emulsion at a water application rate of 600 to 800 l/ha (converted) with the addition of 0.2% of wetting agent onto the green parts of the plants. After the test plants have been kept in the greenhouse under optimum growth conditions for about 3 weeks, the activity of the preparations is rated visually in comparison to untreated controls (herbicidal activity in percent (%): 100% activity=the plants have died, 0% activity=like control plants). Here, for example, the compounds Nos. I-1-c-2 and I-1-c-3 (Table 33 in each case) each show, at an application rate of 320 g/ha, an activity of at least 90% against Alopecurus myosuroides, Amaranthus retroflexus, Matricaria inodora, Pharbitis purpureum and Viola tricolor.

Fallopia convolvulus = tested on: Fallopia convolvulus
Protocol: as §1

Lolium multiflorum = tested on: Lolium multiflorum
Protocol: as §1

Veronica persica = tested on: Veronica persica
Protocol: as §1

CCc1cc(Cl)cc(Br)c1-c1c(O)c(C)nn(C)c1=O [I-1-a-3]
100%: herbicidal activity in percent against Abutilon theophrasti (Abutilon theophrasti) | herbicidal activity in percent against Fallopia convolvulus (Fallopia convolvulus) | herbicidal activity in percent against Lolium multiflorum (Lolium multiflorum) | herbicidal activity in percent against Veronica persica (Veronica persica)

CCc1cc(Cl)cc(Br)c1-c1c(OC(=O)C(C)C)c(C)nn(C)c1=O [I-1-b-2]
100%: herbicidal activity in percent against Abutilon theophrasti (Abutilon theophrasti) | herbicidal activity in percent against Fallopia convolvulus (Fallopia convolvulus) | herbicidal activity in percent against Lolium multiflorum (Lolium multiflorum) | herbicidal activity in percent against Veronica persica (Veronica persica)
